Results taken from PubChem BioAssay AID1996.
Converted amounts (≈) assume the structure as drawn.

Conditions: buffer; pH 7.4; 200.0 µM

Structure (SMILES) | solubility kinetic [µg/mL]
CCN(CC)S(=O)(=O)c1ccc(NC(=S)Nc2ccccc2)cc1 | 13 (≈ 35.8 µM)
N#Cc1ccc(C(=O)NC(=S)NC2CCCCC2)cc1 | 21.9 (≈ 76.2 µM)
CC(OC(=O)C1CC1)C(=O)Nc1cccc(S(=O)(=O)N2CCOCC2)c1 (stereo not given) | > 57.4
N#C/C(=C/c1ccncc1)c1nc2ccccc2c(=O)[nH]1 | > 41.1
COc1ccccc1N1CC(C(=O)NC2CCCCCC2)CC1=O (stereo not given) | > 49.6
S=C(Nc1ccc(Oc2ccccc2)cc1)N1CCOCC1 | 42.8 (≈ 136 µM)
CCc1ccc2nc(N)sc2c1 | > 26.7
CN(c1ncnc(N)c1[N+](=O)[O-])C1CCCCC1 | > 37.7
CC1(C)CC(=O)C(C(N)=NC(=O)c2ccc([N+](=O)[O-])cc2)=C(O)C1 | 0.7 (≈ 2.11 µM)
O=[N+]([O-])c1cccc(CNC2CCCCCC2)c1 | 24.6 (≈ 99.1 µM)
Cc1cc(C)c(C)c(OCCN2CCOCC2)c1 | 27.3 (≈ 109 µM)
C[C@H](NC(=O)c1ccc(C(C)(C)C)cc1)C(=O)N1CCN(C/C=C/c2ccccc2)CC1 | 21.6 (≈ 49.8 µM)
COc1ccc(CNC(=O)COC(=O)C2(C)CC2(Cl)Cl)cc1 (stereo not given) | > 51.9
CCN(CCO)c1nc(N2CCCCC2)c2cnn(C)c2n1 | > 45.7
Cc1cccc(N2C(=NC(=O)c3ccccc3)SC3CS(=O)(=O)CC32)c1 (stereo not given) | < 0.4
COCc1c(C(=O)Nc2cccc(S(=O)(=O)N3CCCCC3)c2)oc2ccccc12 | 3.1 (≈ 7.23 µM)
Nc1cccc2c(=O)c3ccccc3[nH]c12 | 5.6 (≈ 26.6 µM)
CC(C)[C@H](NC(=O)c1ccccc1F)C(=O)Nc1ccc(F)c(F)c1 | 4.9 (≈ 14 µM)
O=C(CCc1c[nH]c2ccccc12)N1CCCCCCC1 | 17.9 (≈ 62.9 µM)
CC(=O)Nc1ccc(Nc2ccccc2)cc1 | > 33.9
O=C(Nc1ccc2ccccc2c1)c1ccccc1O | 0.7 (≈ 2.66 µM)
Cc1ccc(CN(Cc2ccccc2)C(=S)Nc2ccccc2C)o1 | 1.5 (≈ 4.28 µM)
CN(C(=O)CSc1nnc2n1CCCCC2)C1(C#N)CCCCC1 | > 52.1
Cc1ccc(NS(=O)(=O)c2ccc(Cl)s2)nc1 | 33.6 (≈ 116 µM)

Structure (SMILES) | solubility kinetic [µg/mL]
O=C(NCC1CCCO1)c1cccc2ccccc12 (stereo not given) | > 38.3
COc1ccccc1N1C(N)=NC(N)=NC12CCCCC2.Cl | > 48.6
Cc1cccnc1NC(=S)Nc1ccc(F)cc1F | 8 (≈ 28.6 µM)
COc1cc(CN2CCCCCC2)cc(OC)c1O | 27 (≈ 102 µM)
CC[n+]1c(C)n(-c2ccccc2)c2ccc(NC(C)=O)cc21.[I-] | > 63.2
O=C(Nc1ccc(S(=O)(=O)N2CCCC2)cc1)c1ccc([N+](=O)[O-])o1 | 6.8 (≈ 18.6 µM)
COc1ccc2c([N+](=O)[O-])c(N3CCCC3)[nH]c2c1 | 37.7 (≈ 144 µM)
Cc1ccc(C(=O)C(C)OC(=O)Cc2c[nH]c3ccccc23)cc1 (stereo not given) | 7.2 (≈ 22.4 µM)
CS(=O)(=O)N(CC(=O)N1CCCCCC1)c1cccc(F)c1 | > 49.3
Cc1ccc(C(=O)OCC(=O)NCc2ccc3c(c2)OCO3)cc1S(=O)(=O)N1CCOCC1 | 7.2 (≈ 15.1 µM)
CCN(CC)c1ccc(CNCc2cccs2)cc1.Cl | 44.2
Cc1ccsc1CNC12CC3CC(CC(C3)C1)C2.Cl | 38.1
CN(C)/C=C/C(=O)c1c(F)cccc1F | 31.4 (≈ 149 µM)
COc1ccccc1Cn1c(=S)[nH]c2ccccc2c1=O | 0.5 (≈ 1.68 µM)
COc1ccc(Nc2nc(OC)nc(OC)n2)cc1 | > 39.3
Cn1c2ccccc2c2cc([N+](=O)[O-])ccc21 | < 0.2
S=C(Nc1ccc(Cl)cc1)Nc1ccc2c(c1)OCCO2 | 8.9 (≈ 27.7 µM)
O=C(CCl)Nc1cccc(S(=O)(=O)NC2=NCCCCC2)c1 | > 51.6
CCCn1c(=O)c2c(nc3n2CCN3Cc2ccco2)n(C)c1=O | > 49.4
Cc1ccc(Cl)cc1NC(C#N)c1ccccc1 (stereo not given) | 6.5 (≈ 25.3 µM)
COc1ccc(C2=NOC(CNC(=S)N3CCOCC3)C2)cc1 (stereo not given) | 12.8 (≈ 38.2 µM)
Cc1ccc(N2C(=O)C(CN3CCCCC3)C2c2ccccc2)cc1 (stereo not given) | 27 (≈ 80.7 µM)
Cc1cc2ccccn2c1C(=O)c1cccc([N+](=O)[O-])c1 | 0.3 (≈ 1.07 µM)
c1ccc2c(CN3CCOCC3)c[nH]c2c1 | > 32.4

Structure (SMILES) | solubility kinetic [µg/mL]
COc1ccc(-c2nc(N)nc(C(F)(F)F)c2-c2cscn2)c(O)c1 | < 0.2
CC(C)(Cc1ccc(O)cc1)NC(=O)c1ccccc1 | 36.7 (≈ 136 µM)
Cc1ccc2nc(N3CCOCC3)c(C=O)cc2c1 | 25.8 (≈ 101 µM)
S=C(NCCc1ccccc1)Nc1ccccc1 | 31.5 (≈ 123 µM)
COc1ccccc1Nc1ncnc2sccc12 | 30.1 (≈ 117 µM)
Cc1cc(C)cc(N2C(=O)CN(Cc3ccccc3)C2=S)c1 | 4.1 (≈ 13.2 µM)
CSc1nc2sc3c(c2c(=O)n1C)CCC3 | 2.6 (≈ 10.3 µM)
Cn1c(=O)n(C)c2cc(S(=O)(=O)Nc3ccccc3C(=O)O)ccc21 | > 54.2
S=c1[nH]c2cc3ccccc3cc2[nH]1 | 27.9 (≈ 139 µM)
Cc1c(C)c(C)c(CO/N=C/c2cccs2)c(C)c1C | 1.3 (≈ 4.52 µM)
CCOC(=O)c1cc(C)n(-c2ccc(Cl)cc2)c1C | 1.2 (≈ 4.32 µM)
CC1SC2(NC1=O)C1CC3CC(C1)CC2C3 (stereo not given) | 3.4 (≈ 14.3 µM)
S=c1nc(-c2ccccc2)n(Cc2cccnc2)c2c1CCCC2 | > 50
Cc1ccc(NC(=O)CN2C(=O)c3ccccc3S2(=O)=O)cc1C | 5.9 (≈ 17.1 µM)
Cc1ccc(SCCC(=O)N/N=C/c2cccnc2)cc1 | > 44.9
O=C(NNC(=O)c1ccco1)c1csc(N2CCOCC2)n1 | > 48.4
Cc1ccc(C(=O)NC(C(=O)Nc2ccccc2)c2ccccc2)cc1 (stereo not given) | 1 (≈ 2.9 µM)
COCCNc1nnc(Cc2ccc(OC)c(OC)c2)c(=O)[nH]1 | > 48.1
COc1cc(NS(=O)(=O)c2ccc(NC(=S)NC(C)=O)cc2)nc(OC)n1 | > 61.7
Cc1nc(-c2ccc([N+](=O)[O-])cc2)c(-c2ccccc2)o1 | 5.1 (≈ 18.2 µM)
NC(=O)c1cc(Cl)ccc1OCC(=O)NC1CC1 | > 40.3
O=C(Nc1ccc(NC(=O)C2CC2)cc1)c1ccco1 | > 40.5
Cc1ccc(NC(=O)/C(Cl)=C\c2ccccc2)cc1 | 1.4 (≈ 5.15 µM)
CC(=O)N/C(N)=N/c1nc2cc([N+](=O)[O-])ccc2o1 | 3.8 (≈ 14.4 µM)

Structure (SMILES) | solubility kinetic [µg/mL]
COc1cccc(C(=O)O/N=C(\N)c2ccc(C)cc2)c1 | 10.2 (≈ 35.9 µM)
CC(=O)Nc1ccc(C(=O)OCC(=O)N2CCCC2=O)cc1 | > 45.6
Cc1ccnc(SC2CC(=O)N(c3ccc(C(C)C)cc3)C2=O)n1 (stereo not given) | > 51.2
COc1ccc(NC(=O)COc2cccnc2[N+](=O)[O-])cc1OC | > 50
O=C(Nc1nccs1)[C@@H]1CCCN1C(=O)c1cccs1 | 30.6 (≈ 99.5 µM)
CCOC(=O)c1cc(-c2csc(COc3ccccc3)n2)on1 | 0.4 (≈ 1.21 µM)
CN1C(=O)C(=O)N(c2cccc(C(F)(F)F)c2)C1=O | 39.9 (≈ 147 µM)
O=C(NCCN1CCCCC1)Nc1cccc(C(F)(F)F)c1 | > 47.3
C/C(O)=c1/c(=O)nc2cccc3c2=c1c1ccccc1c3=O | < 0.6
Cc1ccccc1CSc1ccc(S(=O)(=O)N2CCCC2)cn1 | 3.1 (≈ 8.9 µM)
CSc1ncccc1C(=O)OCC(=O)NC(C)C | > 40.2
Cc1ccccc1NC(=O)CCN1C(=O)c2ccccc2C1=O | 15.3 (≈ 49.6 µM)
CCN(C(=O)CSc1ncccn1)C1CCS(=O)(=O)C1 (stereo not given) | > 47.3
Cc1ccccc1Nc1c([N+](=O)[O-])cncc1[N+](=O)[O-] | 37.1 (≈ 135 µM)
Brc1ccsc1-c1csc(-c2ccncc2)n1 | 2.7 (≈ 8.35 µM)
COc1ccc(CNc2cc(C)ccn2)cc1 | 17.4 (≈ 76.2 µM)
Cn1c(=NC(=O)COc2ccccc2)sc2cccc(F)c21 | < 0.3
Cc1c(Cl)cccc1NC(=S)NCc1ccc(F)cc1 | 3.7 (≈ 12 µM)
N/C(=N\c1nc2ccccc2o1)NC(=O)c1ccc([N+](=O)[O-])cc1 | < 0.1
O=C(COC(=O)c1ccncc1)c1ccc(Br)cc1 | 44 (≈ 137 µM)
N#C/C(=C\c1ccncc1)C(=O)Nc1ccc(C(=O)O)cc1 | > 44
COc1ccc(OC(C)C(=O)NC2CCCCCCC2)cc1 (stereo not given) | 45.1 (≈ 148 µM)
COc1ccc(C(=O)Nc2ccccc2C(=O)Nc2ccc(C(=O)O)cc2)cc1 | > 58.6
CCCc1nc2oc3c(=O)[nH]cnc3c2c2c1COC(C)(C)C2 | > 47

Structure (SMILES) | solubility kinetic [µg/mL]
c1ccc(Nc2nc(-c3ccccc3)nc3ccccc23)cc1 | 2.5 (≈ 8.41 µM)
Cc1cc(NC(=O)c2cccs2)ncc1NC(=O)C(C)(C)C | 38.6 (≈ 122 µM)
c1ccc2[nH]c(-c3cscn3)nc2c1 | > 30.2
CCN(CC(=O)NCCC1=CCCCC1)S(=O)(=O)c1ccccc1 | > 52.6
COc1ccc(C(=O)N=c2sccn2C)cc1 | 36.1 (≈ 145 µM)
O=C(Nc1ccc(Nc2ccccc2)cc1)c1ccccc1 | 1.6 (≈ 5.55 µM)
COc1ccccc1CN(C)C(=O)COC(=O)c1ccc(Cl)nc1 | > 52.3
CC(C)c1nc2sc(C(=O)O)c(N)c2c2c1CCCC2 | 14.6 (≈ 50.3 µM)
CCCn1c(=N)n(CC(O)COc2ccc(C)cc2)c2ccccc21.Cl (stereo not given) | > 56.4
O=C(COc1ccc2ccccc2c1)Nc1cccnc1Cl | < 0.3
C=CCn1c(Oc2ccccc2F)nc2c1c(=O)n(C)c(=O)n2C | > 49.5
O=Cc1cnc(N2CCN(c3ccccc3)CC2)s1 | > 41
O=S(=O)(CCc1ccncc1)Cc1ccc2c3c(cccc13)CC2 | 11.8 (≈ 35 µM)
CC(C)N(Cc1ccccc1)C(=O)CN1C(=O)NC2(CCOc3ccccc32)C1=O (stereo not given) | > 61.1
O=C(COC(=O)C1CC2CCCC(C1)C2=O)NC1CCCCC1 (stereo not given) | > 48.2
CN1CCN(c2c(/C=N/O)c3ccccc3n2C)CC1 | > 40.9
Cc1ccc(C(=O)COC(=O)[C@@H](NC(=O)c2ccco2)C(C)C)s1 | > 52.4
CN1CCN(C(=O)CSc2ccc(Cl)cc2)CC1 | > 42.7
NC(=O)C1CCN(C(=O)COc2ccc3c(c2)oc(=O)c2ccccc23)CC1 | 10.8 (≈ 28.4 µM)
CCOC(=O)c1sc2nc(C)nc(NCc3ccccc3)c2c1C | 0.3 (≈ 0.879 µM)
COc1cccc(C(=O)OCC(=O)Nc2cc(C)on2)c1OC | > 48
COc1ccc(-c2cc(C(=O)N(C)Cc3nc4ccccc4c(=O)[nH]3)c3ccccc3n2)cc1OC | 13.2 (≈ 27.5 µM)
S=C(NC1CCCCC1)N1CCc2[nH]c3ccccc3c2C1 | 1.3 (≈ 4.15 µM)
O=c1oc(-c2ccc([N+](=O)[O-])cc2)nc2ccccc12 | 0.3 (≈ 1.12 µM)
